US11964971B2, “Methods and compositions for modulating splicing” (Skyhawk Therapeutics, Inc., priority 2019, dated 2024)

Tests used:
SMN protein = SMN protein assay (MSD) in SMA patient fibroblasts (GM03813); assay type: cell-based, human
Summary of the method: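 Absolute SMN protein measured by Mesoscale Discovery assay in lysates, calibrated per plate with SMN standards (1–19.5 μg/ml). Cells: GM03813 SMA fibroblasts, 7000/well, 48 h compound exposure at doses of 2.5 μM down to 0.6 nM.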

[1] = test system: MDR1-MDCK cell monolayers; settings: dog, MDCK-MDR1, 120 min, 5 μM, pH 7.4
MDR1 = assay: in vitro; settings: dog; for Papp A→B at 120 min, 5 μM: MDCK-MDR1, pH 7.4, MDCK-MDR1: Papp A-B (10^−6, cm/s); for Papp B→A at 120 min, 5 μM: MDCK-MDR1, pH 7.4, MDCK-MDR1: Papp B-A (10^−6, cm/s)
MDR1 (P-gp) = assay: MDCK-MDR1 permeability assay, blood-brain-barrier penetration potential; settings: dog, MDCK-MDR1, pH 7.4, MDCK-MDR1 Efflux Ratio

Structure (SMILES)	EC50 (SMN protein) [nM]	MDCK-MDR1: % Recov A-B (%) [1] [%]	MDCK-MDR1: % Recov B-A (%) [1] [%]	Papp A→B at 120 min, 5 μM (MDR1) [×10⁻⁶ cm/s]	Papp B→A at 120 min, 5 μM (MDR1) [×10⁻⁶ cm/s]	efflux ratio at 120 min, 5 μM (MDR1 (P-gp))
CNC(=O)/C=C/c1cc(O)c(-c2cnc(N(C)[C@@H]3CC4CC[C@H](N4)[C@@H]3F)cn2)cc1F (single isomer, unassigned) [Compound 60E1]	51 to 100	93	88	1.71	51.3	30
CN(c1cnc(-c2ccc(-c3cnn(C)c3)cc2O)cn1)[C@@H]1CC2CC(F)(F)[C@@H](C1)N2 (single isomer, unassigned) [Compound 10E1]	501 to 10000	59	86	22.9	26.1	1
CN(c1cnc(-c2ccc(-c3cnn(C)c3)cc2O)cn1)[C@@H]1CC2COC[C@H](N2)[C@@H]1F (single isomer, unassigned) [Compound 73E1]	101 to 500	50	71	11.5	38.1	3
Cn1ccc(-c2ccc(-c3cnc(N(C4CC4)[C@H]4C[C@@H]5CCC(N5)[C@H]4F)cn3)c(O)c2)cc1=O (single isomer, unassigned) [Compound 53E2]	501 to 10000	71	69	1.61	46.1	29
CN(c1cnc(-c2ccc(-c3cn[nH]c3)cc2O)cn1)[C@@H]1C[C@H]2CCC(N2)[C@@H]1F (single isomer, unassigned) [Compound 8E1]	501 to 10000	72	71	3.58	33.3	9
Cn1cc(-c2ccc(-c3cnc(N(C4CC4)[C@H]4C[C@]5(C)CC[C@@](C)(N5)[C@H]4F)cn3)c(O)c2)cn1 [Compound 75E2, 2-(5-(cyclopropyl((1R,2S,3S,5S)-2-fluoro-1,5-dimethyl-8-azabicyclo[3.2.1]octan-3-yl)amino)pyrazin-2-yl)-5-(1-methyl-1H-pyrazol-4-yl)phenol]	101 to 500	38	66	2.39	16.9	7
O=c1cc(-c2cc(O)c(-c3cnc(N(C4CC4)[C@H]4C[C@@H]5CCC(N5)[C@H]4F)cn3)cc2F)ccn1CF (single isomer, unassigned) [Compound 39E2]	501 to 10000	82	81	2.58	62	24
CN(c1cnc(-c2cc(F)c(C3=CC(F)NC(F)=C3)cc2O)cn1)[C@@H]1C[C@@]2(C)CC[C@](C)(N2)[C@@H]1F (single isomer, unassigned) [Compound 63E1]	501 to 10000	18	35	0.7	0.45	1
CN(c1cnc(-c2ccc(-c3cnn(C)c3)cc2O)cn1)[C@@H]1[C@H](F)[C@H]2CCC(N2)[C@@H]1F (single isomer, unassigned) [Compound 4E2]	16 to 50	44	63	4.94	27.9	6
COc1cc(-c2ccc(-c3cnc(N(C)[C@@H]4CC5N[C@H](C4)CC5(F)F)cn3)c(O)c2)cnn1 (single isomer, unassigned) [Compound 68E1]	501 to 10000	63	86	9.35	43	5
